{
  "source": "ChEMBL document CHEMBL5500343",
  "about": "“Activity refinement of aryl amino acetamides that target the P. falciparum STAR-related lipid transfer 1 protein” (Eur J Med Chem, 2024)",
  "key": {"Plasmodium falciparum [1]": {"test_system": "Plasmodium falciparum", "assay": "Antimalarial activity against Plasmodium falciparum Dd2 assessed as reduction in parasite growth incubated for 72 hrs by [3H]-hypoxanthine incorporation assay", "format": "functional, organism-based"}, "Plasmodium falciparum [2]": {"test_system": "Plasmodium falciparum", "assay": "Antimalarial activity against DSM-265 resistant Plasmodium falciparum Dd2 harboring DHODH C276F mutant assessed as reduction in parasite growth incubated for 72 hrs by [3H]-hypoxanthine incorporation assay", "format": "functional, organism-based"}, "Plasmodium falciparum [3]": {"test_system": "Plasmodium falciparum", "assay": "Antimalarial activity against asexual blood stage Plasmodium falciparum Dd2-F6 assessed as minimum inoculum of resistance at 5 times IC50 measured for 35 days by SYBR Green I dye based flow cytometry", "format": "functional", "settings": "time 35 day"}, "Plasmodium falciparum [4]": {"test_system": "Plasmodium falciparum", "assay": "Antimalarial activity against asexual blood stage Plasmodium falciparum 3D7 assessed as reduction in parasite growth incubated for 72 hrs by LDH assay", "format": "functional, organism-based", "settings": "3D7, 72 h"}, "[5]": {"assay": "Intrinsic clearance in rat hepatocyte measured per 10^6 cells at 1 uM incubated upto 90 mins by LC-MS/MS analysis", "format": "ADME, cell-based", "settings": "rat hepatocytes, read-out: CLH"}, "HepG2": {"test_system": "HepG2", "assay": "Cytotoxicity against human HepG2 cells assessed as reduction in cell viability incubated for 48 hrs by Cell Titer-Glo assay", "format": "functional, cell-based", "settings": "HepG2, 48 h"}, "[6]": {"assay": "Kinetic aqueous solubility of the compound in PBS at pH 7.4 incubated for 2 hr under shaking condition by shake flask based UV reader plate analysis", "format": "physicochemical", "settings": "read-out: Kinetic_solubility"}, "[7]": {"assay": "Intrinsic clearance in human liver microsomes at 1 uM incubated upto 60 mins in presence of NADPH by LC-MS/MS analysis", "format": "ADME, Microsome", "settings": "read-out: CLH"}, "[8]": {"assay": "Lipophilicity, LogD of compound in 1-Octanol and PBS at pH 7.4 at 7.5 uM incubated for 2 hrs shake flask method based LC-MS/MS analysis", "format": "physicochemical", "settings": "1-octanol/PBS"}, "[9]": {"assay": "Drug concentration in Swiss mouse plasma at 50 mg/kg,po administration measured upto 24 hrs by LC-MS/MS analysis", "format": "ADME, organism-based", "settings": "in vivo"}, "[10]": {"assay": "Drug concentration in Swiss mouse plasma at 50 mg/kg,po administration measured after 15 mins by LC-MS/MS analysis", "format": "ADME, organism-based"}, "[11]": {"assay": "Apparent half life in Swiss mouse at 50 mg/kg,po administration measured for 4 to 24 hrs by LC-MS/MS analysis", "format": "ADME, organism-based", "settings": "in vivo, time 4-24 hrs, read-out: t1/2(app) (converted)"}, "[12]": {"assay": "Drug concentration in Swiss mouse plasma at 50 mg/kg,po administration measured after 12 hrs by LC-MS/MS analysis", "format": "ADME, organism-based", "settings": "in vivo"}, "[13]": {"assay": "Toxicity in Swiss mouse at 50 mg/kg,po administration measured upto 24 hrs by LC-MS/MS analysis", "format": "organism-based", "settings": "in vivo"}, "Plasmodium berghei": {"test_system": "Plasmodium berghei", "assay": "Antimalarial activity against Plasmodium berghei ANKA infected in mouse assessed as reduction of parasitaemia at 50 mg/kg,po bid administrated for 72 hrs and measured after 24 hrs post last dose by Giemsa staining based microscopic analysis", "format": "functional, organism-based", "settings": "time 96.0 hrs"}, "[14]": {"assay": "Toxicity in mouse infected with Plasmodium berghei ANKA assessed as change in body weight at 50 mg/kg,po bid administrated for 72 hrs and measured after 24 hrs post last dose", "format": "organism-based", "settings": "in vivo"}, "Plasmodium falciparum [15]": {"test_system": "Plasmodium falciparum", "assay": "Binding affinity to recombinant Plasmodium falciparum START1 assessed as change in enthalpy at 10 uM by isothermal titration calorimetry"}, "Plasmodium falciparum [16]": {"test_system": "Plasmodium falciparum", "assay": "Binding affinity to recombinant Plasmodium falciparum START1 assessed as change in entropy at 10 uM by isothermal titration calorimetry"}, "[17]": {"assay": "Binding affinity to recombinant Plasmodium falciparum START1 assessed as dissociation constant by isothermal titration calorimetry"}, "Plasmodium falciparum [18]": {"test_system": "Plasmodium falciparum", "assay": "Antimalarial activity against MMV006833 resistant Plasmodium falciparum 3D7 assessed as reduction in parasite growth incubated for 72 hrs by LDH assay", "format": "functional, organism-based", "settings": "3D7, 72 h"}, "Plasmodium falciparum [19]": {"test_system": "Plasmodium falciparum", "assay": "Antimalarial activity against MMV006833 resistant Plasmodium falciparum 3D7 harboring START1 N309K mutant assessed as reduction in parasite growth incubated for 72 hrs by LDH assay", "format": "functional, organism-based", "settings": "3D7, 72 h"}, "Plasmodium falciparum [20]": {"test_system": "Plasmodium falciparum", "assay": "Antimalarial activity against MMV006833 resistant Plasmodium falciparum 3D7 harboring START1 N330K mutant assessed as reduction in parasite growth incubated for 72 hrs by LDH assay", "format": "functional, organism-based", "settings": "3D7, 72 h"}, "Plasmodium falciparum [21]": {"test_system": "Plasmodium falciparum", "assay": "Antimalarial activity against KAF-156 resistant Plasmodium falciparum Dd2 harboring CARL I1139K mutant assessed as reduction in parasite growth incubated for 72 hrs by [3H]-hypoxanthine incorporation assay", "format": "functional, organism-based"}, "Plasmodium falciparum [22]": {"test_system": "Plasmodium falciparum", "assay": "Antimalarial activity against DDD-107498 resistant Plasmodium falciparum Dd2 harboring eEF2 Y86N mutant assessed as reduction in parasite growth incubated for 72 hrs by [3H]-hypoxanthine incorporation assay", "format": "functional, organism-based"}, "Plasmodium falciparum [23]": {"test_system": "Plasmodium falciparum", "assay": "Antimalarial activity against MMV-048 resistant Plasmodium falciparum Dd2 harboring PI4K S743T mutant assessed as reduction in parasite growth incubated for 72 hrs by [3H]-hypoxanthine incorporation assay", "format": "functional, organism-based"}, "Plasmodium falciparum [24]": {"test_system": "Plasmodium falciparum", "assay": "Antimalarial activity against ELQ-300 resistant Plasmodium falciparum Dd2 harboring Cyt b I22L mutant assessed as reduction in parasite growth incubated for 72 hrs by [3H]-hypoxanthine incorporation assay", "format": "functional, organism-based"}, "Plasmodium falciparum [25]": {"test_system": "Plasmodium falciparum", "assay": "Antimalarial activity against chloroquine and mefloquine resistant Plasmodium falciparum K1 assessed as reduction in parasite growth incubated for 72 hrs by [3H]-hypoxanthine incorporation assay", "format": "functional, organism-based"}, "Plasmodium falciparum [26]": {"test_system": "Plasmodium falciparum", "assay": "Antimalarial activity against chloroquine and mefloquine resistant Plasmodium falciparum NF54 assessed as reduction in parasite growth incubated for 72 hrs by [3H]-hypoxanthine incorporation assay", "format": "functional, organism-based"}, "Plasmodium falciparum [27]": {"test_system": "Plasmodium falciparum", "assay": "Antimalarial activity against atovaquone resistant Plasmodium falciparum TM90-C2B assessed as reduction in parasite growth incubated for 72 hrs by [3H]-hypoxanthine incorporation assay", "format": "functional, organism-based"}, "Plasmodium falciparum [28]": {"test_system": "Plasmodium falciparum", "assay": "Antimalarial activity against chloroquine and mefloquine resistant Plasmodium falciparum 7G8 assessed as reduction in parasite growth incubated for 72 hrs by [3H]-hypoxanthine incorporation assay", "format": "functional, organism-based"}, "Plasmodium falciparum [29]": {"test_system": "Plasmodium falciparum", "assay": "Antimalarial activity against chloroquine and mefloquine resistant Plasmodium falciparum RF12 assessed as reduction in parasite growth incubated for 72 hrs by [3H]-hypoxanthine incorporation assay", "format": "functional, organism-based"}, "Plasmodium falciparum [30]": {"test_system": "Plasmodium falciparum", "assay": "Antimalarial activity against asexual blood stage Plasmodium falciparum Dd2-B2 assessed as reduction in parasite growth measured for 60 days by flow cytometry", "format": "functional", "settings": "Dd2-B2, 1440 h, time 60 day"}, "Plasmodium falciparum [31]": {"test_system": "Plasmodium falciparum", "assay": "Antimalarial activity against asexual blood stage Plasmodium falciparum Dd2-B2 assessed as reduction in recrudescence measured for 60 days by flow cytometry", "format": "functional, organism-based", "settings": "time 60.0 day"}, "Plasmodium falciparum [32]": {"test_system": "Plasmodium falciparum", "assay": "Antimalarial activity against asexual blood stage Plasmodium falciparum Dd2-F6 assessed as minimum inoculum of resistance at 2.2 times IC50 measured for 35 days by SYBR Green I dye based flow cytometry", "format": "functional", "settings": "time 35 day"}},
  "note": "pEC50, pKd: −log10 of the molar value. Calls of active or inactive are those of the source. The calls are words filed in the database; no cut-off is given here.",
  "data": [
    {"compound": "Cc1cc(Nc2ccc(S(F)(F)(F)(F)F)cc2)n2nc(C(C)(F)F)nc2n1", "note": "[DSM-265]", "values": [
      {"measurement": "pEC50", "setting": "Plasmodium falciparum [1]", "value": 7.62},
      {"measurement": "pEC50", "setting": "Plasmodium falciparum [2]", "value": 6.33},
      {"measurement": "Activity", "setting": "Plasmodium falciparum [3]", "value": "1.6 10^6No_unit"}
    ]},
    {"compound": "CC(C)(Nc1ccc(Cl)c(S(=O)(=O)N2CCOCC2)c1)C(=O)Nc1cncc(Cl)c1", "values": [
      {"measurement": "pEC50", "setting": "Plasmodium falciparum [4]", "value": 7.82},
      {"measurement": "hepatocyte CLint at 1 µM", "setting": "[5]", "value": 68, "unit": "µL/min/1e6 cells"},
      {"measurement": "pEC50", "setting": "HepG2", "value": "< 4.40"},
      {"measurement": "solubility kinetic at 2 h", "setting": "[6]", "value": 60, "unit": "µM"},
      {"measurement": "microsomal CLint at 1 µM", "setting": "[7]", "value": "> 462", "unit": "µL/min/mg"},
      {"measurement": "logD at 2 h, 7.5 µM", "setting": "[8]", "value": 3.2},
      {"measurement": "Drug uptake", "setting": "[9]", "value": "Active"},
      {"measurement": "concentration at 0.25 h", "setting": "[10]", "value": "~1200", "unit": "nM"},
      {"measurement": "half-life", "setting": "[11]", "value": 5.9, "unit": "h"},
      {"measurement": "Drug uptake", "setting": "[12]", "value": "Active"},
      {"measurement": "Activity", "setting": "[13]", "value": "Non-Toxic"},
      {"measurement": "Activity", "setting": "Plasmodium berghei", "value": "inactive"},
      {"measurement": "Activity", "setting": "[14]", "value": "Non-Toxic"},
      {"measurement": "deltaH", "setting": "Plasmodium falciparum [15]", "value": -11.6, "unit": "kcal/mol"},
      {"measurement": "-TdeltaS", "setting": "Plasmodium falciparum [16]", "value": 0.8, "unit": "kcal/mol"},
      {"measurement": "pKd", "setting": "[17]", "value": 7.85}
    ]},
    {"compound": "CC(C)(Nc1ccc(Cl)c(S(=O)(=O)N2CCOCC2)c1)C(=O)Nc1ccc(F)c(Cl)c1", "values": [
      {"measurement": "pEC50", "setting": "Plasmodium falciparum [4]", "value": 8.30},
      {"measurement": "hepatocyte CLint at 1 µM", "setting": "[5]", "value": "> 92", "unit": "µL/min/1e6 cells"},
      {"measurement": "pEC50", "setting": "HepG2", "value": 4.50},
      {"measurement": "solubility kinetic at 2 h", "setting": "[6]", "value": 16, "unit": "µM"},
      {"measurement": "microsomal CLint at 1 µM", "setting": "[7]", "value": "> 462", "unit": "µL/min/mg"},
      {"measurement": "logD at 2 h, 7.5 µM", "setting": "[8]", "value": 3.9},
      {"measurement": "pEC50", "setting": "Plasmodium falciparum [18]", "value": 8.40},
      {"measurement": "pEC50", "setting": "Plasmodium falciparum [19]", "value": 5.49},
      {"measurement": "pEC50", "setting": "Plasmodium falciparum [20]", "value": 5.66},
      {"measurement": "pEC50", "setting": "Plasmodium falciparum [1]", "value": 9.00},
      {"measurement": "pEC50", "setting": "Plasmodium falciparum [21]", "value": 9.00},
      {"measurement": "pEC50", "setting": "Plasmodium falciparum [2]", "value": 9.00},
      {"measurement": "pEC50", "setting": "Plasmodium falciparum [22]", "value": 9.00},
      {"measurement": "pEC50", "setting": "Plasmodium falciparum [23]", "value": 9.00},
      {"measurement": "pEC50", "setting": "Plasmodium falciparum [24]", "value": 9.00},
      {"measurement": "pEC50", "setting": "Plasmodium falciparum [25]", "value": 8.70},
      {"measurement": "pEC50", "setting": "Plasmodium falciparum [26]", "value": 8.70},
      {"measurement": "pEC50", "setting": "Plasmodium falciparum [27]", "value": 9.00},
      {"measurement": "pEC50", "setting": "Plasmodium falciparum [28]", "value": 9.00},
      {"measurement": "pEC50", "setting": "Plasmodium falciparum [29]", "value": 9.00},
      {"measurement": "pKd", "setting": "[17]", "value": 8.00},
      {"measurement": "EC90", "setting": "Plasmodium falciparum [30]", "value": 9.7, "unit": "nM"},
      {"measurement": "Activity", "setting": "Plasmodium falciparum [31]", "value": "inactive"},
      {"measurement": "Activity", "setting": "Plasmodium falciparum [32]", "value": "1.9 10^7No_unit"}
    ]}
  ]
}
